# Assay results as given in patent US8952024B2, “Herbicidal pyrimidone derivatives” (E I du Pont de Nemours and Company, priority 2009, dated 2015).
# What was measured:
# Assay in all cases: Test D pre-/postemergence plant response
# Assay type in all cases: in vivo
# [1] = system: Italian ryegrass (Lolium multiflorum)
# Text: (§1) Seeds of plant species selected from bermudagrass (Cynodon dactylon), Surinam grass (Brachiaria decumbens), large crabgrass (Digitaria sanguinalis), green foxtail (Setaria viridis), goosegrass (Eleusine indica), johnsongrass (Sorghum halepense), kochia (Kochia scoparia), morningglory (pitted morningglory, Ipomoea lacunosa), nutsedge (purple nutsedge, Cyperus rotundus), ragweed (common ragweed, Ambrosia elatior), black mustard (Brassica nigra), guineagrass (Panicum maximum), dallisgrass (Paspalum dilatatum), barnyardgrass (Echinochloa crus-galli), sandbur (southern sandbur, Cenchrus echinatus), sowthistle (common sowthistle, Sonchus oleraceous), prickly sida (Sida spinosa), Italian ryegrass (Lolium multiflorum), purslane (common purslane, Portulaca oleracea), signalgrass (broadleaf signalgrass, Brachiaria platyphylla), groundsel (common groundsel, Senecio vulgaris), chickweed (common chickweed, Stellaria media), dayflower (Virginia (VA) dayflower, Commelina virginica), bluegrass (annual bluegrass, Poa annua), naked crabgrass (Digitaria nuda), itchgrass (Rottboellia cochinchinensis), quackgrass (Elytrigia repens), field bindweed (Convolvulus arvensis), spanishneedles (Bidens bipinnata), mallow (common mallow, Malva sylvestris) and Russian thistle (Salsola kali), were planted into a blend of loam soil and sand and treated preemergence with test chemicals formulated in a non-phytotoxic solvent mixture which included a surfactant. At the same time, plants from these weed species were treated with postemergence applications of the test chemicals formulated in the same manner. Plants ranged in height from 2 to 18 cm (1- to 4-leaf stage) for postemergence treatments.
# (§2) Treated plants and controls were maintained in a greenhouse for 14 to 21 days, after which time all species were visually evaluated and compared to controls. Plant response ratings, summarized in Table D, are based on a scale of 0 to 100 where 0 is no effect and 100 is complete control. A dash (-) response means no test result.
# [2] = system: sandbur (southern sandbur, Cenchrus echinatus)
# Text: as §1, §2
# [3] = system: morningglory (pitted morningglory, Ipomoea lacunosa)
# Text: as §1, §2
# [4] = system: black mustard (Brassica nigra)
# Text: as §1, §2
# [5] = system: quackgrass (Elytrigia repens)
# Text: as §1, §2
# [6] = system: field bindweed (Convolvulus arvensis)
# Text: as §1, §2
# [7] = system: large crabgrass (Digitaria sanguinalis)
# Text: as §1, §2
# [8] = system: prickly sida (Sida spinosa)
# Text: as §1, §2
# [9] = Postemergence, 31 g ai/ha, scale 0 to 100
# [10] = Postemergence, 62 g ai/ha, scale 0 to 100 (0 no effect, 100 complete control)
# [11] = Postemergence, 125 g ai/ha, scale 0 to 100 (0 no effect, 100 complete control)
# [12] = Postemergence, 16 g ai/ha, scale 0 to 100
# [13] = Preemergence, 16 g ai/ha, scale 0 to 100, 0 no effect, 100 complete control
# [14] = Preemergence, 31 g ai/ha, scale 0 to 100 (0 no effect, 100 complete control)
# [15] = Preemergence, 125 g ai/ha, scale 0 to 100
# [16] = Preemergence, 62 g ai/ha, scale 0 to 100
# [17] = Postemergence, 31 g ai/ha, scale 0 to 100 (0 no effect, 100 complete control)
# [18] = Postemergence, 250 g ai/ha, scale 0 to 100 (0 no effect, 100 complete control)
structure (smiles),measurement,setting,value
COCCn1c(-c2ccccc2)ncc(C(=O)C2=C(O)CCCC2=O)c1=O [Compound 85],"Plant response rating, Ryegrass, Italian",[1]; [9],0
same,"Plant response rating, Ryegrass, Italian",[1]; [10],15
same,"Plant response rating, Ryegrass, Italian",[1]; [11],20
same,"Plant response rating, Ryegrass, Italian",[1]; [12],0
same,"Plant response rating, Ryegrass, Italian",[1]; [13],0
same,"Plant response rating, Ryegrass, Italian",[1]; [14],0
same,"Plant response rating, Ryegrass, Italian",[1]; [15],20
same,"Plant response rating, Sandbur",[2]; [9],50
same,"Plant response rating, Sandbur",[2]; [10],65
same,"Plant response rating, Sandbur",[2]; [11],95
same,"Plant response rating, Sandbur",[2]; [12],10
same,"Plant response rating, Sandbur",[2]; [13],5
same,"Plant response rating, Sandbur",[2]; [14],5
same,"Plant response rating, Sandbur",[2]; [15],98
same,"Plant response rating, Morningglory",[3]; [9],70
same,"Plant response rating, Morningglory",[3]; [10],75
same,"Plant response rating, Morningglory",[3]; [11],90
same,"Plant response rating, Morningglory",[3]; [12],70
same,"Plant response rating, Morningglory",[3]; [14],70
same,"Plant response rating, Morningglory",[3]; [16],90
same,"Plant response rating, Morningglory",[3]; [15],100
same,"Plant response rating, Black Mustard",[4]; [17],60
same,"Plant response rating, Black Mustard",[4]; [10],75
same,"Plant response rating, Black Mustard",[4]; [11],85
same,"Plant response rating, Black Mustard",[4]; [12],35
same,"Plant response rating, Black Mustard",[4]; [13],50
same,"Plant response rating, Black Mustard",[4]; [14],60
same,"Plant response rating, Black Mustard",[4]; [16],98
same,"Plant response rating, Black Mustard",[4]; [15],100
same,"Plant response rating, Quackgrass",[5]; [9],0
same,"Plant response rating, Quackgrass",[5]; [10],15
same,"Plant response rating, Quackgrass",[5]; [11],20
same,"Plant response rating, Quackgrass",[5]; [12],0
same,"Plant response rating, Quackgrass",[5]; [13],0
same,"Plant response rating, Quackgrass",[5]; [14],0
same,"Plant response rating, Quackgrass",[5]; [15],20
same,"Plant response rating, Field Bindweed",[6]; [9],75
same,"Plant response rating, Field Bindweed",[6]; [10],75
same,"Plant response rating, Field Bindweed",[6]; [11],75
same,"Plant response rating, Field Bindweed",[6]; [12],65
same,"Plant response rating, Field Bindweed",[6]; [13],50
same,"Plant response rating, Field Bindweed",[6]; [14],70
same,"Plant response rating, Field Bindweed",[6]; [16],70
same,"Plant response rating, Field Bindweed",[6]; [15],98
same,"Plant response rating, Crabgrass, Large",[7]; [9],60
same,"Plant response rating, Crabgrass, Large",[7]; [10],75
same,"Plant response rating, Crabgrass, Large",[7]; [11],75
same,"Plant response rating, Crabgrass, Large",[7]; [12],60
same,"Plant response rating, Crabgrass, Large",[7]; [13],95
same,"Plant response rating, Crabgrass, Large",[7]; [14],98
same,"Plant response rating, Crabgrass, Large",[7]; [16],100
same,"Plant response rating, Crabgrass, Large",[7]; [15],100
same,"Plant response rating, Prickly Sida",[8]; [9],95
same,"Plant response rating, Prickly Sida",[8]; [10],95
same,"Plant response rating, Prickly Sida",[8]; [11],98
same,"Plant response rating, Prickly Sida",[8]; [13],90
same,"Plant response rating, Prickly Sida",[8]; [14],100
same,"Plant response rating, Prickly Sida",[8]; [16],100
same,"Plant response rating, Prickly Sida",[8]; [15],100
COCCn1c(-c2cccc(F)c2)ncc(C(=O)C2=C(O)C3CCC(C3)C2=O)c1=O (centres unmarked) [Compound 235],"Plant response rating, Ryegrass, Italian",[1]; [9],5
same,"Plant response rating, Ryegrass, Italian",[1]; [10],5
same,"Plant response rating, Ryegrass, Italian",[1]; [11],5
same,"Plant response rating, Ryegrass, Italian",[1]; [18],35
same,"Plant response rating, Sandbur",[2]; [9],75
same,"Plant response rating, Sandbur",[2]; [10],75
same,"Plant response rating, Sandbur",[2]; [11],75
same,"Plant response rating, Sandbur",[2]; [18],75
same,"Plant response rating, Morningglory",[3]; [9],75
same,"Plant response rating, Morningglory",[3]; [10],75
same,"Plant response rating, Morningglory",[3]; [11],95
same,"Plant response rating, Morningglory",[3]; [18],95
same,"Plant response rating, Black Mustard",[4]; [17],80
same,"Plant response rating, Black Mustard",[4]; [10],80
same,"Plant response rating, Black Mustard",[4]; [11],98
same,"Plant response rating, Black Mustard",[4]; [18],98
same,"Plant response rating, Quackgrass",[5]; [9],5
same,"Plant response rating, Quackgrass",[5]; [10],30
same,"Plant response rating, Quackgrass",[5]; [11],40
same,"Plant response rating, Quackgrass",[5]; [18],70
same,"Plant response rating, Field Bindweed",[6]; [9],60
same,"Plant response rating, Field Bindweed",[6]; [10],65
same,"Plant response rating, Field Bindweed",[6]; [11],65
same,"Plant response rating, Field Bindweed",[6]; [18],70
same,"Plant response rating, Crabgrass, Large",[7]; [9],70
same,"Plant response rating, Crabgrass, Large",[7]; [10],75
same,"Plant response rating, Crabgrass, Large",[7]; [11],75
same,"Plant response rating, Crabgrass, Large",[7]; [18],80
same,"Plant response rating, Prickly Sida",[8]; [9],65
same,"Plant response rating, Prickly Sida",[8]; [10],65
same,"Plant response rating, Prickly Sida",[8]; [11],70
same,"Plant response rating, Prickly Sida",[8]; [18],75
COCCCn1c(-c2cccc(F)c2)ncc(C(=O)C2=C(O)C3CCC(C3)C2=O)c1=O (centres unmarked) [Compound 238],"Plant response rating, Ryegrass, Italian",[1]; [9],5
same,"Plant response rating, Ryegrass, Italian",[1]; [10],5
same,"Plant response rating, Ryegrass, Italian",[1]; [11],5
same,"Plant response rating, Ryegrass, Italian",[1]; [18],5
same,"Plant response rating, Sandbur",[2]; [9],50
same,"Plant response rating, Sandbur",[2]; [10],75
same,"Plant response rating, Sandbur",[2]; [11],75
same,"Plant response rating, Sandbur",[2]; [18],85
same,"Plant response rating, Morningglory",[3]; [9],70
same,"Plant response rating, Morningglory",[3]; [10],80
same,"Plant response rating, Morningglory",[3]; [11],80
same,"Plant response rating, Morningglory",[3]; [18],90
same,"Plant response rating, Black Mustard",[4]; [17],80
same,"Plant response rating, Black Mustard",[4]; [10],95
same,"Plant response rating, Black Mustard",[4]; [11],98
same,"Plant response rating, Black Mustard",[4]; [18],98
same,"Plant response rating, Quackgrass",[5]; [9],5
same,"Plant response rating, Quackgrass",[5]; [10],5
same,"Plant response rating, Quackgrass",[5]; [11],30
same,"Plant response rating, Quackgrass",[5]; [18],40
same,"Plant response rating, Field Bindweed",[6]; [9],35
same,"Plant response rating, Field Bindweed",[6]; [10],50
same,"Plant response rating, Field Bindweed",[6]; [18],50
same,"Plant response rating, Crabgrass, Large",[7]; [9],50
same,"Plant response rating, Crabgrass, Large",[7]; [10],70
same,"Plant response rating, Crabgrass, Large",[7]; [11],75
same,"Plant response rating, Crabgrass, Large",[7]; [18],80
same,"Plant response rating, Prickly Sida",[8]; [9],30
same,"Plant response rating, Prickly Sida",[8]; [10],30
same,"Plant response rating, Prickly Sida",[8]; [11],50
same,"Plant response rating, Prickly Sida",[8]; [18],65
